These results are taken from patent US10456550B2, “Device and method for controlling respiration during sleep” (Yeda Research and Development Co. Ltd., priority 2010, dated 2019).

One test concerns 8-day-old rats. Conditions: cited from earlier work.
The test system of the next test is humans. Conditions: selective trigeminal irritant during nocturnal sleep; cited from earlier work.
Test [1] relates to healthy subjects. Description: Respiration (inhale/exhale volume) after odorant presentation during sleep. Conditions: for inhale/exhale volume ratio following odor presentation in comparison to baseline: nasal respiration, across all sleep stages; for difference in respiration volume ratio across sleep stages: repeated measures ANOVA between sleep stages. The class given is in vivo, human. The source says:
(§1) Odorants were delivered with a computer-controlled air dilution olfactometer built according to principals described in Sobel et al. 1997; Johnson and Sobel 2007 which are incorporated herein by reference. Room air (3 Liter per minute) was mixed with the odorized air (3 liter per minute), resulting in odor concentration of 50%. The odorant line culminated at a small nasal mask that was subserved by a vacuum line pulling at the same rate of airflow. This provided an odor environment at the nose where odorant onset and offset occurred within 2 and 260 ms, respectively, with no visual, auditory, tactile, humidity, or thermal cues as to the alteration. In other words, the odorant stimulus was not a puff of air but rather a block of odorant embedded within an airflow that was constant for the duration of the study. The olfactometer itself was located in a room adjacent to the sleep room, and only the airflow tubing crossed into the sleep room via a wave guide within the stainless steel-coated wall. This provided additional separation from any possible visual or auditory stimulation associated with the olfactometer (e.g., LEDs on its front panel, etc.).
Overall respiration was computed as a reflection of changes in thoracic respiration and abdominal respiration circumference measured using 2 piezoelectric respiratory belt transducers (1132 Pneumotrace II, UFI).
Nasal and Oral respiration was measured using separate pneumotachometers (high-sensitivity flowmeter model #4719, Hans Rudolph, Inc.) that were attached in line with the vent ports of the mask. The pneumotachometer differential pressure was measured and converted to a voltage signal using a spirometer (ML141, ADInstruments) that delivered the voltage to the instrumentation amplifier.
The effects of odorants on 4 breath parameters were tested: breath mean airflow velocity, breath maximum airflow velocity, breath volume, and breath duration. Breath volume was calculated by the trapezoidal Reimann sum method (Johnson et al. 2006). Breaths were aligned in time by setting the point at which the breath passed from the expiratory phase to the inspiratory phase as time 0.
The experimenters observed the real-time polysomnography reading, and 20 min after they determined that the subject had entered stage 2 sleep, they initiated the experimental protocol that from this point on was computer controlled. Every 9, 12, or 15 min (randomized), the olfactometer generated a 5-, 10-, or 20-s (randomized) odor stimulus. […] Upon spontaneous morning wake-up, subjects again rated the intensity and pleasantness of the odorant and were then debriefed, paid, and released.
Averages of respiration measurements for inhalation, exhalation, and inhalation/exhalation ratio in the 30 breaths before odor onset were compared with the averages of respiration measurements for inhalation, exhalation, and inhalation/exhalation ratio for each one of 6 breaths after odor onset across sleep stages per odorant and for all odorants together. This analysis was corrected for the 6 comparisons using a Bonferroni correction. Respiratory measurements were compared between sleep stages per odorant in a repeated measures ANOVA.
The second alternative is that, although oral respiration typically reflects only; 4% of overall respiration in sleep (Fitzpatrick et al. 2003), the odorant may have changed the balance between nasal and oral breathing such that oral inspiration increased. Under this scenario, the increase in nasal exhalation reflected an increase in oral inspiration rather than the exhalation of air stored in the lungs. The above data could not discriminate between these alternatives because it relied on accurate measurement of nasal respiration alone. An additional control group of 10 subjects were studied using the odorant vetiver oil that in addition to the nasal mask were fitted with an oral mask in order to accurately measure oral and nasal respiration simultaneously.

In test [2] the test system is healthy subjects. Description: Arousal and wake-up frequency after odorant presentation during sleep (polysomnography). The class given is in vivo, human. The note with it: odor vs clean-air baseline, across sleep stages; 5-20 s stimuli, 50% odor concentration.
Source text: as §1
Physiological measurements were recorded using a Power-Lab 16SP Monitoring System (ADInstruments) running off a Macintosh G4 computer using a sampling rate of 1000 Hz and a 50-Hz notch filter to remove electrical artifacts. For all measures dependent on electrodes, the scalp surface was cleaned with mild abrasive gel (Nuprep gel, Aurora) in order to assist in lowering impedance at the electrode site. For pasted to electrodes on the rest of the body, the skin surface was also first cleaned with alcohol. The following measures were recorded:
Electroencephalogram (EEG) was obtained through 2 circular electrodes ([…]) that were located at positions C3 and C4 according to the 10-20 system and were referenced to electrodes on the opposite mastoids (A2 and A1, respectively). Signals were amplified using a preamplifier (Octal Bio Amp ML138, ADInstruments).
Electromyogram (EMG) was obtained through 2 circular Ag/AgCl conductive adhesive electrodes (0.9 cm diameter). The electrodes were located bilaterally adjacent to the submentalis muscles. Signals were amplified using a preamplifier (Octal Bio Amp ML138, ADInstruments). […]
Blood oxygination (SpO2) was measured with an oxymeter (MLT321 SpO2 Finger Clip Sensor, ADInstruments) embedded within a finger clip placed on the left index finger.
Sleep stages were scored off-line according to the R and K criteria (Rechtschaffen and Kales 1968). […]
The experimenters observed the real-time polysomnography reading, and 20 min after they determined that the subject had entered stage 2 sleep, they initiated the experimental protocol that from this point on was computer controlled. […]

Setting [3] is: first breath after dispersion, worded 'may' in the description.

With `CSSC` [DMDS, dimethyl disulfide], the sniffing during sleep entry in the test on 8-day-old rats (8-day-old rats presented with odorant) was “sniffing, including polypnea, occurred while the rats were asleep”. In addition, in the test with 8-day-old rats (sleeping 8-day-old rats), the arousal responses entry is reported as “did not evoke reliable arousal responses”.

For `O=C=O` [CO2], the arousal frequency entry with humans was “concentration-dependent increase in arousal frequency”.

On to `[NH4+].[NH4+].[S-2]` [ammonium sulfide], for which, in the test with healthy subjects [1], the “inhale/exhale volume ratio following odor presentation in comparison to baseline” value is recorded as “significantly smaller” and the “difference in respiration volume ratio across sleep stages” value is given as “no difference”. Moreover, in the test on healthy subjects [2], the “effect of odor on arousal frequency” value was “no effect of odor” and the “effect of odor on wake-up frequency” value is listed as “no effect of odor on wake-up”.

With `COc1cc(C=O)ccc1O` [vanillin], in the test with healthy subjects [1] (setting [3]), the “decrease of inhalation volume” value is “about 23%” and the “increase of exhalation volume” value is “about 6%”. Further, the “reduction of nasal inhalation/exhalation volume ratio” value with healthy subjects [1] (first breath after odor onset, worded 'may' in the description) is recorded as “about 27%”. Further, in the test with healthy subjects [1], the “inhale/exhale volume ratio following odor presentation in comparison to baseline” value is given as “significantly smaller” and the “difference in respiration volume ratio across sleep stages” value was “no difference”. For the same compound, the “reduction of nasal inhalation/exhalation volume ratio” value in the test with healthy subjects [1] (sixth breath after odor onset, worded 'may' in the description) is “about 5%”. Besides, in the test with healthy subjects [2], the “effect of odor on arousal frequency” value is reported as “no effect of odor on arousal” and the “effect of odor on wake-up frequency” value is listed as “no effect of odor on wake-up”.
